Here are results for three compounds from US10357480B2, “Biotin for treating peripheral demyelinating neuropathy” (MedDay Pharmaceuticals, priority 2015, dated 2019).

For data set [1], the system named is patient suffering from ALS. In words: Treatment of a patient suffering from ALS with high doses biotin (case report). The data set is classed as in vivo, human. How it is done: Treatment with biotin 100 mg three times a day was started the 11 Sep. 2015. […] All these medications were introduced at least 6 months before.
For data set [2], the system named is patients with demyelinating Charcot Marie Tooth (CMT) disease. Kind of data set: Treatment of patients with demyelinating Charcot Marie Tooth disease, 6 minutes walking test. The data set is classed as in vivo, human. How it is done:
Two patients with demyelinating Charcot Marie Tooth (CMT) disease were treated with biotin 300 mg/day. • A patient with CMT1a was treated with high doses of biotin (100 mg three times a day). No other treatment was introduced. The patient was followed clinically using a 6 minutes walking test. After 9 months of treatment the maximum walking distance was improved by 100 meters. • A person with CMT1E (a rare form of demyelinating CMT with hearing loss) was treated with high doses biotin (100 mg three times a day). No other drug was introduced.

The subject of data set [3] is patients diagnosed with Neuromyelitis optica. In words: Treatment of patients with neuromyelitis optica, visual acuity and motor strength. The data set is classed as in vivo, human. The conditions noted are these: for visual acuity right: 0/10 at onset; for visual acuity left: 9/10 at onset. From the text: Biotin can be used for treatment of neuromyelitis optica, using the same kind of regimen as disclosed in Examples 1 and 4.
Endpoint would be partial recovery and improvement of vision or of motor strength. Three patients will be treated and assessed every 6 months with measures of visual acuity (VA) and clinical examination including motor strength testing. Results will be considered positive in case of improvement of VA of at least 5 letters associated with any improvement of motor strength.
Results: • Patient 1: this person was diagnosed with Neuromyelitis optica. First episode of right optic neuritis occurred in 2006. This was followed by an attack of tetraplegia in 2009 with positive anti-NMO antibodies. […] The patient could not walk. Treatment with biotin (100 mg three times a day) was started. […] Treatment with biotin (100 mg three times a day) was introduced. At that time the patient was treated with monthly perfusions of cyclophosphamide. Visual acuity was 0/10 right and 9/10 left. After 4 months of treatment with biotin, visual acuity was 1/10 right and 6/10 left. After 18 months of treatment, visual acuity was 2/10 right and 8/10 left. It was concluded that treatment with biotin improved the right visual acuity.

For data set [4] the following is noted: in vivo; cited from earlier work.
Data set [5] concerns CMT1A. As to conditions: six clinical trials, 1- or 2-year AA treatment; cited from earlier work.
The subject of data set [6] is IgM anti-MAG demyelinating neuropathy. As to conditions: controlled trial (Léger et al, 2013); cited from earlier work.
[7] abbreviates: biotin 100 mg three times a day.

`O=C(O)CCCC[C@@H]1SC[C@@H]2NC(=O)N[C@@H]21` [biotin, Biotin]: the “time the patient could switch off the medical ventilator” value in data set [1] (after 6 months of treatment, dependent on ventilator 24 hours a day at beginning) is listed as 4 hours a day. For the same compound, the disability entry in data set [1] (setting [7]) was “some stabilization of its disability”. Besides, in data set [1] (setting [7]), the “weight of the patient” value was “slightly increased”. Moreover, in data set [1] (biotin 100 mg three times a day, after 3 and 6 months, better exercise tolerance during physical therapy), the “muscle atrophy in lower extremities” value is listed as “some improvement”. Further, in data set [1] (biotin 100 mg three times a day, after 3 and 6 months, concomitant riluzole and other medications), the “limbs weakness and swallowing” value is “stabilization”. In addition, the “6 minutes walk test” value in data set [2] (CMT1E patient, after 9 months, 396 meters at onset) amounted to 490 meters; in data set [2] (CMT1E patient, after 12 months, 396 meters at onset), 480 meters; in data set [2] (CMT1E patient, after 18 months, 396 meters at onset) it was 483 meters; in data set [2] (CMT1E patient, after 24 months, 396 meters at onset), 580 meters; in data set [2] (person with CMT1E, biotin 100 mg three times a day, after 3 months, 396 meters at treatment's onset), 515 meters. Also, in data set [2] (patient with CMT1a, biotin 100 mg three times a day, after 9 months), the “improvement of maximum walking distance, 6 minutes walking test” value was 100 meters. Moreover, the “strength in the right lower limb” value in data set [3] (NMO Patient 1, after 9 months) is recorded as “better strength”. Besides, the walking ability result in data set [3] (NMO Patient 1, after 24 months, could not walk at onset) was “walk with two aids and the help of the physical therapist”. Further, the tolerability of treatment result in data set [3] (NMO Patient 1, biotin 100 mg three times a day, 24 months) is “very well tolerated”. Besides, the right hand movements entry in data set [3] (NMO Patient 1, biotin 100 mg three times a day, after three months, confirmed after 9 months) was “some improvement”. For the same compound, the visual acuity right in data set [3] (NMO Patient 2, after 4 months of biotin 100 mg three times a day, monthly cyclophosphamide) was 1/10; in data set [3] (NMO Patient 2, after 18 months), 2/10. In addition, the visual acuity left in data set [3] (NMO Patient 2, after 4 months) was 6/10; in data set [3] (NMO Patient 2, after 18 months), 8/10. Moreover, the plasma half life entry in data set [4] is “about 2 hours”.

Turning to `O=C1O[C@H]([C@@H](O)CO)C(O)=C1O` [Ascorbic acid], the clinical benefit result in data set [5] is “no clinical benefit”.

For Rituximab: monoclonal antibody, the patients condition entry in data set [6] is given as “didn't really improve”.
